Results taken from US6603023B2 (priority 1996, dated 2003).
Values joined by “and” are separate entries in the source; they are usually repeats but may differ in a detail not shown here. Identical values can stand only once. Counter-ions that a name gives are not always drawn. Like-named read-outs stand apart in the source and are kept apart here.

Columns and labels:
[1] = tested on: CCRF-CEM human T-cell acute lymphoblastic leukemia cell line; assay: XTT cytotoxicity (cell growth inhibition), CCRF-CEM
How it was run: (§1)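 XTT microculture tetrazolium readout, duplicate wells: 72 h compound incubation, then PMS-XTT (0.025 mM PMS) added, 4 h 37 °C, A450 and A630 measured. Suspension cells in RPMI-1640/10% FBS, 5×10^4 cells/mL; resistant sublines maintained with selecting drug.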

[2] = tested on: CCRF-CEM/VM1; assay: cells; format: cell-based, human
How it was run: as §1

[3] = tested on: DC-3F/ADX; assay: cells; format: cell-based, hamster; details: DC3F/ADX
How it was run: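 Cell protein content measured by sulforhodamine B staining after trichloroacetic acid fixation, read at 570 nm; duplicate runs of six to seven concentrations fitted by median-effect analysis. Lines are actinomycin D-resistant DC-3F hamster lung sublines (ADII, ADX), kept under selecting drug in RPMI 1640-10% FBS.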

[4] = tested on: murine leukemic P388/0; assay: XTT cytotoxicity, P388/0; format: cell-based; details: Mus musculus, P388, 72 h
How it was run: as §1

[5] = tested on: human neuroblastoma SK-N-As; assay: SRB cytotoxicity, SK-N-As; format: cell-based; details: Homo sapiens, SK-N-AS, 72 h
How it was run: (§2)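 Cellular protein content measured with sulforhodamine B after trichloroacetic acid fixation, read at 570 nm. Each duplicate run used six to seven concentrations, analysed by the median-effect method. Cells were cultured at 37 °C, 5% CO2 in RPMI 1640-10% FBS, and drug-resistant lines were maintained with their selecting agent.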

[6] = tested on: SK-N-FI; assay: cells; format: cell-based, human; details: Homo sapiens, SK-N-FI, 72 h
How it was run: as §2

[7] = tested on: MCF-7/Adr; assay: cells; format: cell-based, human; details: Homo sapiens, NCI/ADR-RES, 72 h
How it was run: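 Sulforhodamine B readout: TCA-fixed cultures stained 30 min with 0.4% SRB, bound dye extracted in unbuffered Tris and read at 570 nm. Duplicate experiments, six to seven drug concentrations per run.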

[8] = tested on: Human CCRF-CEM Xenograft; assay: CCRF-CEM xenograft in scid mice; format: in vivo, CB-17 scid mice
[9] = tested on: CCRF-CEM/Taxol®; assay: cells; format: cell-based, human; details: Homo sapiens, CCRF-CEM, 72 h
How it was run: as §1

[10] = tested on: CCRF-CEM/VBL100; assay: cells; format: cell-based, human
How it was run: as §1

[11] = Homo sapiens, CCRF-CEM, 72 h, Table 1A, XTT
[12] = Homo sapiens, CCRF-CEM, Table 1, XTT
[13] = Homo sapiens, CCRF-CEM, Table 2
[14] = Homo sapiens, CCRF-CEM, Table 5, single determinations
[15] = Homo sapiens, CCRF-CEM, Table 2, CCR-CEM/VM-1
[16] = dose 2.0 i.p. QD d7-10,14,15, day 12
[17] = dose 2.0 i.p. QD d7-10,14,15, day 17
[18] = dose 2.0 i.p. QD d7-10,14,15, day 22
[19] = dose 4.0 i.p. QD d7-10,14,15, day 12
[20] = dose 4.0 i.p. QD d7-10,14,15, day 17
[21] = dose 4.0 i.p. QD d7-10,14,15, day 22
[22] = Homo sapiens, CCRF-CEM, read-out: IC50 (mean ± of determinations, in parentheses), Table 5
[23] = dose 0.2 i.p. QD d7-10,14,15, day 12
[24] = dose 0.2 i.p. QD d7-10,14,15, day 17
[25] = dose 0.2 i.p. QD d7-10,14,15, day 22
[26] = dose 0.4 i.p. QD d7-10,14,15, day 12
[27] = dose 0.4 i.p. QD d7-10,14,15, day 17
[28] = dose 0.4 i.p. QD d7-10,14,15, day 22

CC(=O)O[C@H]1C(=O)[C@@]2(C)[C@H]([C@H](OC(=O)c3ccccc3)[C@]3(O)C[C@H](OC(=O)[C@H](O)[C@@H](NC(=O)c4ccccc4)c4ccccc4)C(C)=C1C3(C)C)[C@]1(OC(C)=O)CO[C@@H]1C[C@@H]2O [Taxol ®, paclitaxel]
IC50 ([1]; Homo sapiens, CCRF-CEM): 2.1 nM | IC50 [1, 11]: 2.1 nM | IC50 [1, 12]: 2 nM | IC50 [1, 13]: 2.3 nM | IC50 [1, 14]: 2.1 nM | IC50 ([1]; Homo sapiens, CCRF-CEM, read-out: IC50 (A), Table 2A, parent cell line): 2.3 nM | IC50 [2, 11]: 6.6 nM | IC50 [2, 12]: 2 nM | IC50 [2, 15]: 3 nM | IC50 ([2]; Homo sapiens, CCRF-CEM, Table 2A, Topo II gene mutated cell line): 3 nM | IC50 [2, 14]: 6.6 nM | IC50 ([3]; 72 h, Table 1C, SRB): 32000 nM | IC50 ([3]; Table 3): 32000 nM | IC50 ([3]; relative potency ordering): 32000 nM | IC50 [4]: 2.9 nM | IC50 [5]: 1.6 nM | IC50 [6]: 130 nM | IC50 [7]: 150 nM | Average weight change ([8]; dose 2.0 i.p. QD d7-10,14,15, day 7): −0.1 | Average tumor volume (control = 1.00) [8, 16]: 0.39 | Average weight change [8, 16]: −1.1 | Average tumor volume (control = 1.00) [8, 17]: 0.29 | Average weight change [8, 17]: −1.5 | Average tumor volume (control = 1.00) [8, 18]: 0.28 | Average weight change [8, 18]: −0.3 | Average weight change ([8]; dose 4.0 i.p. QD d7-10,14,15, day 7): −0.2 | Average tumor volume (control = 1.00) [8, 19]: 0.37 | Average weight change [8, 19]: −1.7 | Average tumor volume (control = 1.00) [8, 20]: 0.23 | Average weight change [8, 20]: −1.9 | Average tumor volume (control = 1.00) [8, 21]: 0.19 | Average weight change [8, 21]: −0.3

CC[C@]1(O)C[C@@H]2CN(CCc3c([nH]c4ccccc34)[C@@](C(=O)OC)(c3cc4c(cc3OC)N(C)[C@H]3[C@@](O)(C(=O)OC)[C@H](OC(C)=O)[C@]5(CC)C=CCN6CC[C@]43[C@@H]65)C2)C1 [Vinblastine, Vinblastine sulfate]
IC50 ([1]; Homo sapiens, CCRF-CEM): 0.63 nM | IC50 [1, 11]: 6.3 nM | IC50 [1, 13]: 0.68 nM | IC50 [1, 14]: 0.8 nM | IC50 [1, 22]: 0.63 nM | IC50 ([1]; Table 5, single determinations): 0.6 nM and 0.5 nM | IC50 [9]: 6.9 nM | IC50 ([10]; Homo sapiens, CCRF-CEM): 332 nM | IC50 [10, 11]: 332 nM | IC50 ([10]; Homo sapiens, CCRF-CEM, Table 2, CCRF-CEM/VLB): 465 nM | IC50 ([10]; Homo sapiens, CCRF-CEM, Table 5, CCRF-CEM/VLB, single determinations): 440 nM | IC50 [10, 22]: 332 nM | IC50 ([10]; Table 5, CCRF-CEM/VLB, single determinations): 221 nM and 336 nM | IC50 [2, 11]: 0.41 nM | IC50 [2, 15]: 0.68 nM | IC50 [2, 14]: 0.49 nM | IC50 [2, 22]: 0.41 nM | IC50 ([2]; Table 5, single determinations): 0.39 nM and 0.36 nM | IC50 ([3]; Table 3): 1070 nM | Average weight change ([8]; dose 0.2 i.p. QD d7-10,14,15, day 7): +0.2 | Average tumor volume (control = 1.00) [8, 23]: 0.45 | Average weight change [8, 23]: −0.8 | Average tumor volume (control = 1.00) [8, 24]: 0.25 | Average weight change [8, 24]: −1.5 | Average tumor volume (control = 1.00) [8, 25]: 0.29 | Average weight change [8, 25]: −0.3 | Average weight change ([8]; dose 0.4 i.p. QD d7-10,14,15, day 7): −0.1 | Average tumor volume (control = 1.00) [8, 26]: 0.31 | Average weight change [8, 26]: −1.4 | Average tumor volume (control = 1.00) [8, 27]: 0.27 | Average weight change [8, 27]: −1.8 | Average tumor volume (control = 1.00) [8, 28]: 0.30 | Average weight change [8, 28]: −0.7
